Assay results from PubChem BioAssay AID248 (DTP/NCI, 2004).
Several values for one entry are separate records, joined by “and”; a condition that tells them apart may be missing. Equal values may be shown once. Toxic doses and inconclusive results are not listed. Cut-off read from the data, not from the text of the source: active = T/C of 150% or more; inactive = T/C below 125%.

System: L1210 leukemia ip in BDF1 mice, survival T/C
Assay: NCI In Vivo Anticancer Drug Screen. Data for tumor model L1210 Leukemia (intraperitoneal) in B6D2F1 (BDF1) mice
Conditions: endpoint: mean survival time, higher = longer survival
Procedure, shortened: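 Transplantable tumor model; survival measured in treated vs vehicle control mice. Value = treated/control.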

[1] = dose: 200.0 mg/kg/injection, schedule: Q01DX001 (ip), vehicle: Klucel (hydroxypropylcellulose) (HPC)
[2] = dose: 12.5 mg/kg/injection, schedule: Q01DX009 (ip), vehicle: Klucel (hydroxypropylcellulose) (HPC)
[3] = dose: 25.0 mg/kg/injection, schedule: Q01DX009 (ip), vehicle: Klucel (hydroxypropylcellulose) (HPC)
[4] = dose: 100.0 mg/kg/injection, schedule: Q04DX003 (ip), vehicle: saline with Tween-80
[5] = dose: 400.0 mg/kg/injection, schedule: Q04DX003 (ip), vehicle: saline with Tween-80
[6] = dose: 100.0 mg/kg/injection, schedule: Q04DX003 (ip), vehicle: Klucel (hydroxypropylcellulose) (HPC)
[7] = dose: 200.0 mg/kg/injection, schedule: Q04DX003 (ip), vehicle: Klucel (hydroxypropylcellulose) (HPC)
[8] = dose: 400.0 mg/kg/injection, schedule: Q04DX003 (ip), vehicle: Klucel (hydroxypropylcellulose) (HPC)
[9] = dose: 100.0 mg/kg/injection, schedule: Q01DX001 (ip), vehicle: Klucel (hydroxypropylcellulose) (HPC)
[10] = dose: 100.0 mg/kg/injection, schedule: Q01DX009 (ip), vehicle: saline with Tween-80
[11] = dose: 200.0 mg/kg/injection, schedule: Q01DX009 (ip), vehicle: saline with Tween-80
[12] = dose: 400.0 mg/kg/injection, schedule: Q01DX001 (ip), vehicle: carboxymethylcellulose (CMC)

Measured: T/C

CN(N=O)C(=O)NCCCl
inactive: dose: 0.36 mg/kg/injection, schedule: Q01DX Z (ip), vehicle: carboxymethylcellulose (CMC) 104 % of control | dose: 0.78 mg/kg/injection, schedule: Q01DX Z (ip), vehicle: carboxymethylcellulose (CMC) 95 % of control | dose: 1.56 mg/kg/injection, schedule: Q01DX Z (ip), vehicle: carboxymethylcellulose (CMC) 98 % of control | dose: 3.12 mg/kg/injection, schedule: Q01DX Z (ip), vehicle: carboxymethylcellulose (CMC) 102 % of control | dose: 6.25 mg/kg/injection, schedule: Q01DX Z (ip), vehicle: carboxymethylcellulose (CMC) 102 % of control | dose: 12.5 mg/kg/injection, schedule: Q01DX001 (ip), vehicle: Klucel (hydroxypropylcellulose) (HPC) 103 % of control | dose: 12.5 mg/kg/injection, schedule: Q01DX Z (ip), vehicle: carboxymethylcellulose (CMC) 101 % of control | dose: 25.0 mg/kg/injection, schedule: Q01DX001 (ip), vehicle: Klucel (hydroxypropylcellulose) (HPC) 103 % of control | dose: 25.0 mg/kg/injection, schedule: Q01DX Z (ip), vehicle: carboxymethylcellulose (CMC) 104 % of control | dose: 75.0 mg/kg/injection, schedule: Q01DX Z (ip), vehicle: carboxymethylcellulose (CMC) 119 % of control | [1] 118 % of control

c1ccc(C[P+](c2ccccc2)(c2ccccc2)c2ccccc2)cc1
inactive: dose: 3.13 mg/kg/injection, schedule: Q01DX009 (ip), vehicle: Klucel (hydroxypropylcellulose) (HPC) 106 % of control | dose: 5.0 mg/kg/injection, schedule: Q01DX001 (ip), vehicle: saline with Tween-80 98 % of control | dose: 5.0 mg/kg/injection, schedule: Q01DX001 (ip), vehicle: saline 105 % of control | dose: 5.0 mg/kg/injection, schedule: Q01DX009 (ip), vehicle: saline with Tween-80 95 % of control | dose: 6.25 mg/kg/injection, schedule: Q01DX009 (ip), vehicle: Klucel (hydroxypropylcellulose) (HPC) 102 % of control and 95 % of control | dose: 10.0 mg/kg/injection, schedule: Q01DX001 (ip), vehicle: saline with Tween-80 92 % of control | dose: 10.0 mg/kg/injection, schedule: Q01DX001 (ip), vehicle: saline 100 % of control | dose: 10.0 mg/kg/injection, schedule: Q01DX009 (ip), vehicle: saline with Tween-80 87 % of control | [2] 107 % of control and 96 % of control and 110 % of control | dose: 12.5 mg/kg/injection, schedule: Q04DX003 (ip), vehicle: Klucel (hydroxypropylcellulose) (HPC) 102 % of control | dose: 20.0 mg/kg/injection, schedule: Q01DX001 (ip), vehicle: saline with Tween-80 90 % of control | dose: 20.0 mg/kg/injection, schedule: Q01DX001 (ip), vehicle: saline 96 % of control | [3] 89 % of control | dose: 25.0 mg/kg/injection, schedule: Q04DX003 (ip), vehicle: Klucel (hydroxypropylcellulose) (HPC) 102 % of control | dose: 40.0 mg/kg/injection, schedule: Q01DX001 (ip), vehicle: saline 105 % of control

CC(=O)NC1C(OC(C)=O)OC(COC(c2ccccc2)(c2ccccc2)c2ccccc2)C(OS(C)(=O)=O)C1OC(C)=O (stereo unspecified)
inactive: dose: 50.0 mg/kg/injection, schedule: Q04DX003 (ip), vehicle: saline with Tween-80 109 % of control | [4] 109 % of control and 91 % of control | dose: 200.0 mg/kg/injection, schedule: Q04DX003 (ip), vehicle: saline with Tween-80 121 % of control | [5] 88 % of control

CC1(C)Cc2ccccc2C1=O
inactive: dose: 100.0 mg/kg/injection, schedule: Q04DX002 (ip), vehicle: saline with Tween-80 97 % of control | dose: 200.0 mg/kg/injection, schedule: Q04DX002 (ip), vehicle: saline with Tween-80 91 % of control | dose: 400.0 mg/kg/injection, schedule: Q04DX002 (ip), vehicle: saline with Tween-80 94 % of control

CCOC(=O)C1C(CCCCO)CC(=O)CC1(C)C(N)=O (stereo unspecified)
inactive: dose: 100.0 mg/kg/injection, schedule: Q01DX001 (ip), vehicle: saline 97 % of control | dose: 200.0 mg/kg/injection, schedule: Q01DX001 (ip), vehicle: saline 91 % of control | dose: 400.0 mg/kg/injection, schedule: Q01DX001 (ip), vehicle: saline 95 % of control

CC(=O)OC1CCC2(C)C(CCC3(C)C2CC=C2C4C(C)C(C)CCC4(C)CCC23C)C1(C)C (stereo unspecified)
inactive: [6] 91 % of control | [7] 88 % of control | [8] 90 % of control

Nc1c(-c2ccccc2)[nH][nH]c1=O
inactive: [9] 91 % of control | dose: 100.0 mg/kg/injection, schedule: Q01DX009 (ip), vehicle: Klucel (hydroxypropylcellulose) (HPC) 92 % of control | [6] 100 % of control | [1] 99 % of control | dose: 200.0 mg/kg/injection, schedule: Q01DX009 (ip), vehicle: Klucel (hydroxypropylcellulose) (HPC) 92 % of control | [7] 102 % of control | dose: 400.0 mg/kg/injection, schedule: Q01DX001 (ip), vehicle: Klucel (hydroxypropylcellulose) (HPC) 94 % of control | dose: 400.0 mg/kg/injection, schedule: Q01DX009 (ip), vehicle: Klucel (hydroxypropylcellulose) (HPC) 93 % of control | [8] 104 % of control

Nc1ncnc(N)c1NC(=O)c1ccc(-c2ccccc2)cc1
inactive: [4] 91 % of control | [5] 86 % of control

CC(=O)Oc1cc2c3c(c1)-c1c(ccc(OC(C)=O)c1OC(C)=O)CC3NCC2 (stereo unspecified)
inactive: dose: 3.13 mg/kg/injection, schedule: Q04DX003 (ip), vehicle: DMSO 93 % of control | dose: 6.25 mg/kg/injection, schedule: Q04DX003 (ip), vehicle: DMSO 93 % of control | dose: 12.5 mg/kg/injection, schedule: Q04DX003 (ip), vehicle: DMSO 93 % of control | dose: 25.0 mg/kg/injection, schedule: Q04DX003 (ip), vehicle: DMSO 98 % of control | dose: 50.0 mg/kg/injection, schedule: Q04DX003 (ip), vehicle: DMSO 87 % of control

COC(=O)C1CC2c3ccccc3C1c1ccccc12 (stereo unspecified)
inactive: [10] 110 % of control | [6] 108 % of control | dose: 176.0 mg/kg/injection, schedule: Q01DX001 (ip), vehicle: carboxymethylcellulose (CMC) 96 % of control and 92 % of control | [11] 89 % of control | [7] 97 % of control | dose: 264.0 mg/kg/injection, schedule: Q01DX001 (ip), vehicle: carboxymethylcellulose (CMC) 93 % of control | [12] 95 % of control | dose: 400.0 mg/kg/injection, schedule: Q01DX009 (ip), vehicle: saline with Tween-80 95 % of control | [8] 93 % of control | dose: 600.0 mg/kg/injection, schedule: Q01DX001 (ip), vehicle: carboxymethylcellulose (CMC) 98 % of control

CC(C)(C(=O)O)c1ccccc1C(=O)c1ccccc1
inactive: [6] 97 % of control | [7] 101 % of control | [8] 105 % of control

CCOC(=O)CNC(=O)NCc1ccc2c(c1)OCO2
inactive: [10] 98 % of control | [11] 90 % of control

O=[N+]([O-])c1ccc(C(O)C=C(C(F)(F)F)C(F)(F)F)cc1 (stereo unspecified)
inactive: [2] 100 % of control | [3] 97 % of control | [6] 95 % of control | [7] 95 % of control | [8] 97 % of control

CCCCC(=O)N/N=C\c1cc(Cl)ccc1[N+](=O)[O-]
inactive: dose: 100.0 mg/kg/injection, schedule: Q01DX001 (ip), vehicle: carboxymethylcellulose (CMC) 96 % of control | dose: 200.0 mg/kg/injection, schedule: Q01DX001 (ip), vehicle: carboxymethylcellulose (CMC) 91 % of control | [12] 96 % of control

C=CC(=O)O (tested in a mixture with another compound)
inactive: dose: 100.0 mg/kg/injection, schedule: Q01DX Z (ip), vehicle: saline 91 % of control

CCOC(=O)C1=C(OCOC)CCC(C(C)(C)C)C1 (stereo unspecified)
inactive: [9] 92 % of control | [1] 98 % of control
